This note sets out measurements from ChEMBL document CHEMBL1201862, “PubChem BioAssay data set” (2004).

SMILES strings stand for the structures.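 Values below derive from 48-hour exposures of cells grown in 96-well plates, with endpoints linearly interpolated between the two concentrations bracketing the appropriate inhibition level. Here, GI50 denotes the concentration required for 50% inhibition of growth.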 The source made the active and inactive calls. No stated cut-off is given here; in the data, active = GI50 up to about 1.1 µM and inactive = higher. Where only a bound is given, the exact number is not on record here.

Among the test systems are SF-295; HCT-15; SR; K562; RXF 393; SF-268; U-251; UO-31; LOX IMVI; OVCAR-3; SK-MEL-28; A549; OVCAR-8; UACC-257; CCRF-CEM; SK-MEL-2; IGROV-1; MOLT-4; HL-60; SNB-19.
Common to all, as to assay: NCI tumour cell line growth inhibition, 48 h

On to `O=Cc1ccc2c(c1)CC1(C2)Cc2ccc(C=O)cc2C1`, for which the GI50 was > 45.2 µM (inactive) with SF-295; 7.03 µM with HCT-15; 2.67 µM (inactive) in the test on SR; 2.89 µM (inactive) with K562; 3.61 µM (inactive) with RXF 393; 13.4 µM (inactive) with SF-268. The GI50 in the test on U-251 is 8.69 µM (inactive); in the test with UO-31, 11.9 µM (inactive); with LOX IMVI, 6.07 µM (inactive); in the test on OVCAR-3, 13.9 µM (inactive); in the test with SK-MEL-28, 23.7 µM (inactive); with A549, 40.5 µM (inactive). Besides, the GI50 with OVCAR-8 is 7.26 µM (inactive); in the test with UACC-257 it was 18.8 µM (inactive); in the test on CCRF-CEM, 1.68 µM (inactive); in the test on SK-MEL-2, 11.8 µM (inactive); in the test with IGROV-1, 21.5 µM (inactive); in the test on MOLT-4, 2.77 µM (inactive). Besides, the GI50 in the test on HL-60 was 2 µM (inactive); with SNB-19 it was 25.1 µM (inactive).
For the compound `N=C(N)SC1c2ccccc2-c2cc([N+](=O)[O-])ccc21` (stereo not drawn), the GI50 in the test with SF-295 is 4.01 µM (inactive); in the test on HCT-15, 4.48 µM; in the test on SR it was 3.86 µM (inactive); in the test on K562, 3.89 µM (inactive); in the test on RXF 393, 3.5 µM (inactive); with SF-268, 4.48 µM (inactive). For the same compound, the GI50 in the test on U-251 was 2.75 µM (inactive); in the test on UO-31 it was 8.13 µM (inactive); in the test on LOX IMVI, 5.57 µM (inactive); with OVCAR-3, 2.69 µM (inactive); in the test with SK-MEL-28 it was 2.41 µM (inactive); in the test with A549, 4.33 µM (inactive). Further, the GI50 is 8.99 µM (inactive) in the test with OVCAR-8; 7.45 µM (inactive) in the test with UACC-257; 3.3 µM (inactive) in the test with CCRF-CEM; 3.51 µM (inactive) in the test on SK-MEL-2; 5.62 µM (inactive) in the test on IGROV-1; 3.52 µM (inactive) with MOLT-4. The GI50 with HL-60 is 2.61 µM (inactive); with SNB-19, 3.66 µM (inactive).
In the case of `O=[N+]([O-])c1ccc2c(Nc3ccccc3-c3ccccc3Nc3c4ccccc4nc4cc([N+](=O)[O-])ccc34)c3ccccc3nc2c1`, the GI50 in the test with SF-295 was 5.4 µM (inactive); in the test on HCT-15, 3.77 µM; in the test on SR, 1.69 µM (inactive); in the test with K562, 1.57 µM (inactive); in the test with RXF 393, 1.52 µM (inactive); in the test with SF-268, 6.55 µM (inactive). The GI50 was 2.94 µM (inactive) in the test with U-251; 3.26 µM (inactive) in the test on UO-31; 9.57 µM (inactive) with LOX IMVI; 3.18 µM (inactive) with OVCAR-3; 24.2 µM (inactive) in the test on SK-MEL-28; 6.07 µM (inactive) in the test on A549. The GI50 with OVCAR-8 is 3.93 µM (inactive); in the test on UACC-257, 8.05 µM (inactive); in the test on CCRF-CEM it was 3.88 µM (inactive); in the test on SK-MEL-2 it was 2.03 µM (inactive); with IGROV-1 it was 10.8 µM (inactive); with MOLT-4 it was 4.01 µM (inactive). The GI50 was 2.68 µM (inactive) in the test on HL-60 and 4.32 µM (inactive) with SNB-19.
In the case of `C#CC(O)/C=C/C(O)CCCC(O)CC#CC(O)C#CCCCCC(O)/C=C/CCCC(=O)CCCCCCCCCCCCCCCC(O)C(O)C#CC(=O)O` (stereo not drawn), the GI50 is > 25 µM (inactive) in the test with SF-295; > 25 µM in the test on HCT-15; > 25 µM (inactive) in the test on SR; > 25 µM (inactive) with K562; 9.64 µM (inactive) in the test with RXF 393; > 25 µM (inactive) in the test on SF-268. The GI50 was > 25 µM (inactive) in the test with U-251; > 25 µM (inactive) with UO-31; 5.37 µM (inactive) in the test with LOX IMVI; > 25 µM (inactive) in the test with SK-MEL-28; > 25 µM (inactive) in the test on A549; > 25 µM (inactive) in the test on OVCAR-8. The GI50 with UACC-257 is > 25 µM (inactive); with CCRF-CEM, > 25 µM (inactive); in the test on SK-MEL-2 it was > 25 µM (inactive); in the test on IGROV-1 it was 8.55 µM (inactive); in the test on MOLT-4, > 25 µM (inactive); in the test on HL-60, > 25 µM (inactive). In the test with SNB-19, the GI50 was > 25 µM (inactive).
As for `COC(=O)NC(=O)NC(Cc1ccccc1)NC(=O)OCc1ccccc1` (stereo not drawn), the GI50 in the test on SF-295 was 35.5 µM (inactive); in the test on HCT-15 it was > 100 µM; with SR, > 100 µM (inactive); in the test with K562, > 100 µM (inactive); with RXF 393, 20.5 µM (inactive); in the test on SF-268 it was 48.1 µM (inactive). Also, the GI50 with U-251 is 44.1 µM (inactive); with UO-31 it was 30.9 µM (inactive); in the test with LOX IMVI, > 100 µM (inactive); with OVCAR-3, > 100 µM (inactive); with SK-MEL-28, > 100 µM (inactive); in the test on A549, 97.7 µM (inactive). In addition, the GI50 in the test with OVCAR-8 was 74.1 µM (inactive); with UACC-257, > 100 µM (inactive); in the test on CCRF-CEM, > 100 µM (inactive); in the test with SK-MEL-2, 63.2 µM (inactive); in the test on IGROV-1 it was 70.8 µM (inactive); in the test with MOLT-4, > 100 µM (inactive). Besides, the GI50 in the test on HL-60 is > 100 µM (inactive); in the test with SNB-19 it was 42.7 µM (inactive).
`CC(=O)NC1(c2cc3ccccc3s2)CCCCCC1`: the GI50 with SF-295 was 33.7 µM (inactive); with HCT-15, 33.7 µM; in the test with SR, 28.4 µM (inactive); in the test on K562, 23.8 µM (inactive); in the test with RXF 393, 29.6 µM (inactive); with SF-268, 21.3 µM (inactive). For the same compound, the GI50 in the test on U-251 was 40.8 µM (inactive); with UO-31, 37.2 µM (inactive); with LOX IMVI, 47.9 µM (inactive); with OVCAR-3 it was 21.6 µM (inactive); in the test with SK-MEL-28, 54 µM (inactive); in the test with A549, 38.9 µM (inactive). Also, the GI50 with OVCAR-8 was 50.9 µM (inactive); with UACC-257, 40 µM (inactive); in the test with CCRF-CEM it was 20.7 µM (inactive); with SK-MEL-2 it was 33 µM (inactive); in the test with IGROV-1 it was 66.4 µM (inactive); with MOLT-4, 18.5 µM (inactive). Besides, the GI50 in the test on HL-60 is 23.4 µM (inactive); in the test on SNB-19, 74.5 µM (inactive).
For the compound `C[C@]12c3c4cc(NC(=O)C(=O)NCc5ccc(-c6ccccn6)nc5)cc3Oc3cc(NC(=O)C(=O)NCc5ccc(-c6ccccn6)nc5)cc(c31)OC1C=C(NC(=O)C(=O)NCc3ccc(-c5ccccn5)nc3)C=C(O4)C12` (stereo partly drawn), the GI50 in the test on SF-295 is 25.4 µM (inactive); with HCT-15, 27.8 µM; in the test with SR, 3.83 µM (inactive); in the test with K562 it was 84.9 µM (inactive); with RXF 393 it was > 100 µM (inactive); in the test on SF-268 it was 16.8 µM (inactive). For the same compound, the GI50 with U-251 was 84.9 µM (inactive); in the test with UO-31 it was 22.3 µM (inactive); in the test with LOX IMVI it was 17.6 µM (inactive); in the test on OVCAR-3 it was 35.6 µM (inactive); with SK-MEL-28, 95.1 µM (inactive); with A549 it was 86.5 µM (inactive). In addition, the GI50 is 21.9 µM (inactive) in the test with OVCAR-8; 52.2 µM (inactive) in the test on UACC-257; 16.6 µM (inactive) with CCRF-CEM; 38.7 µM (inactive) in the test with SK-MEL-2; 16.9 µM (inactive) in the test on IGROV-1; 12.6 µM (inactive) with MOLT-4. For the same compound, the GI50 is 14.6 µM (inactive) in the test on HL-60 and > 100 µM (inactive) with SNB-19.
Consider `COCOCC/C=C/C=O`, for which the GI50 is > 100 µM (inactive) in the test on SF-295; > 100 µM in the test on HCT-15; > 100 µM (inactive) in the test with SR; > 100 µM (inactive) in the test on K562; > 100 µM (inactive) in the test with RXF 393; > 100 µM (inactive) in the test with SF-268. Besides, the GI50 in the test with U-251, in the test on UO-31, in the test on LOX IMVI, in the test on OVCAR-3, with SK-MEL-28 and in the test with A549 was > 100 µM (inactive) each time. For the same compound, the GI50 in the test with OVCAR-8, with UACC-257, in the test on CCRF-CEM, in the test with SK-MEL-2, in the test with IGROV-1 and in the test on MOLT-4 was > 100 µM (inactive) throughout. Further, the GI50 with HL-60 and in the test on SNB-19 was > 100 µM (inactive) in each case.
Consider `O=[N+]([O-])c1ccc(O)c(/C=N/c2nc(-c3ccccc3)cs2)c1`, for which the GI50 in the test on SF-295 is 33.1 µM (inactive); in the test on HCT-15 it was 29.1 µM; in the test on SR it was 3.03 µM (inactive); with K562, 2.4 µM (inactive); with RXF 393 it was 20.8 µM (inactive); in the test with SF-268 it was 27.9 µM (inactive). The GI50 in the test on U-251 is 32.2 µM (inactive); in the test on UO-31, 26.4 µM (inactive); with LOX IMVI, 15.8 µM (inactive); in the test on OVCAR-3 it was 35.2 µM (inactive); in the test on SK-MEL-28, 31.9 µM (inactive); in the test with A549 it was 38.5 µM (inactive). Moreover, the GI50 was 25.9 µM (inactive) with OVCAR-8; 45.9 µM (inactive) in the test on UACC-257; 43.3 µM (inactive) with CCRF-CEM; 24.4 µM (inactive) in the test on SK-MEL-2; 24.2 µM (inactive) in the test with IGROV-1; 17.9 µM (inactive) in the test on MOLT-4. Besides, the GI50 in the test with HL-60 is 34.2 µM (inactive); in the test on SNB-19, 29 µM (inactive).
As to `Cc1cc(C2CCCCC2)n(O)c(=O)c1` [CICLOPIROX OLAMINE], the GI50 in the test on SF-295 was 3.81 µM (inactive); in the test on HCT-15, 4.39 µM; in the test with SR, 2.95 µM (inactive); with K562 it was 3.41 µM (inactive); in the test with RXF 393, 16.5 µM (inactive); with SF-268 it was 4.25 µM (inactive). Also, the GI50 in the test with U-251 was 0.498 µM (active); in the test with UO-31, 6.32 µM (inactive); in the test on LOX IMVI, 11.9 µM (inactive); with SK-MEL-28, 12.6 µM (inactive); in the test with A549, 3.91 µM (inactive); with OVCAR-8 it was 3.22 µM (inactive). The GI50 in the test with UACC-257 was 1.62 µM (inactive); in the test with CCRF-CEM it was 1.1 µM (active); in the test with SK-MEL-2 it was 21.3 µM (inactive); in the test with IGROV-1 it was 3.46 µM (inactive); in the test on MOLT-4, 1.93 µM (inactive); in the test with HL-60, 0.178 µM (active). The GI50 in the test on SNB-19 is 11.6 µM (inactive).
